# Laboratory results from PubChem BioAssay AID489033 (Sanford-Burnham Center for Chemical Genomics, 2010).
# Activity calls are given as the source filed them. How the calls were made is not given here.
# Test system: 697B B-cell line, NF-kB luciferase reporter luminescence
# Experiment: NF-kB reporter inhibition in B cells, dose response, selectivity assay for T-cell antigen receptor NF-kB inhibitors, 697B cells, luminescence (AID 489033)
row,Structure (SMILES),IC50
1,Cc1ccc(C(=O)c2cc([N+](=O)[O-])ccc2N2CCOCC2)cc1C,> 80 µM (inactive)
2,COc1cc(CC(=O)OCC(=O)c2ccc3c(c2)OCCO3)cc(OC)c1OC,> 80 µM (inactive)
3,CC(C)c1oc(=O)cc2c1[C@@H](O)[C@H]1OC(=O)[C@@]3(C)CC[C@@H](O)[C@@]2(C)C13 (some centres not stated),14 µM
4,COc1ccc(C2=Nn3c([n+](C)c4ccccc43)SC2)cc1,31 µM (inactive)
5,COc1cc(C(=O)N/N=C/c2cc([N+](=O)[O-])cs2)cc(OC)c1OC,5.64 µM
6,Cc1cc(/C=C2\Sc3ccccc3N2C)cc(C)[n+]1CC1CCCO1 (configuration not stated),> 80 µM (inactive)
7,COc1ccc(-n2nnnc2-c2ccccc2)cc1,> 80 µM (inactive)
8,Cc1oc(-c2ccc(Cl)cc2)nc1CS(=O)CC(=O)NCCCN1CCN(Cc2ccccc2)CC1 (configuration not stated),60.8 µM (inactive)
9,CCCCCN1C=CC(=C2C(=O)c3ccccc3C2=O)C=C1,0.38 µM
10,Cc1cccc(N2CCN(C(=O)c3ccc(CS(=O)(=O)c4ccccc4C)o3)CC2C)c1 (configuration not stated),22.3 µM (inactive)
11,Cc1ccc(O)c(N=Nc2nccs2)c1,8.6 µM
12,CCN(CC)c1ccc(/C=N/NC(=O)c2cccc(S(=O)(=O)Nc3ccccc3OC)c2)c(O)c1,3.3 µM
13,CCOC(=O)C(C)Oc1cccc2c(=O)n(CC(=O)NCc3ccc4c(c3)OCO4)ccc12 (configuration not stated),> 80 µM (inactive)
14,COC(=O)c1[nH]c2c(c1C)C(=O)CC(c1cccc(OC)c1)C2 (configuration not stated),> 80 µM (inactive)
15,CC(Oc1ccc(Cl)cc1Cl)c1nc(-c2ccc(NC(=O)c3ccncc3)cc2)no1 (configuration not stated),29.5 µM (inactive)
16,COc1ccc(OC)c(-c2nnc3n2N=C(c2ccc(OC)c(OC)c2)CS3)c1,55.2 µM (inactive)
17,COc1ccc2nc(C)cc(N/N=C/c3ccc(F)cc3)c2c1,2.08 µM
18,O=C(Nc1ccncc1)C1CCCN(S(=O)(=O)c2cccc3cccnc23)C1 (configuration not stated),> 80 µM (inactive)
19,CCOC(=O)c1ccc(NC(=O)Cn2cnc3cc(C)c(C)cc32)cc1,> 80 µM (inactive)
20,CCOC(=O)CC1CCCCN1C(=O)c1cc(COc2cccc3cnccc23)on1 (configuration not stated),> 80 µM (inactive)
21,COC(=O)[C@]12OC[C@]34C([C@@H](O)[C@@H]1O)[C@]1(C)CC(=O)C(O)=C(C)[C@@H]1C[C@H]3OC(=O)[C@H](O)[C@@H]24 (some centres not stated),0.23 µM
22,COc1ccc(OC)c(CCNC(=O)Cn2nc(C)c3c(C)n(-c4ccc(C)cc4)nc3c2=O)c1,> 80 µM (inactive)
23,COc1ccc(OC)c(COC(=O)c2cc([N+](=O)[O-])ccc2N2CCOCC2)c1,> 80 µM (inactive)
24,Cc1sc2ncnc(NC3CCN(Cc4ccccc4)CC3)c2c1C,2.51 µM
25,Clc1cccc(Cl)c1OCCOCCNCc1ccccc1,> 80 µM (inactive)

row,Structure (SMILES),IC50
1,COc1ccc(/C=N\NC(=O)c2ccccc2F)cc1COc1ccc(F)cc1F,> 80 µM (inactive)
2,Cc1ccc(S(=O)(=O)NCc2ccncc2)c(C)c1C,> 80 µM (inactive)
3,CC[n+]1cc(C)ccc1/C=C/c1ccc(N(C)C)cc1,> 80 µM (inactive)
4,C=C1C(O)[C@@H]2O[C@]3(CC[C@H](/C=C/C(C)[C@@H]4CC(C)=CC5(O[C@H](C[C@@](C)(O)CO)CCC5O)O4)O3)CC[C@H]2O[C@@H]1C(O)CC(C)[C@H]1OC2(CCCCO2)CCC1C (some centres not stated),3.19 µM
5,CC(=O)c1ccc(Oc2cc(C)nc(-n3nc(C)cc3C)n2)cc1,> 80 µM (inactive)
6,CCCC(=O)NC(c1ccc(C)cc1)c1ccc2cccnc2c1O (configuration not stated),> 80 µM (inactive)
7,O=C(N[C@@H](Cc1ccccc1)C(=O)CCl)OCc1ccccc1,5.69 µM
8,CCCCOc1ccc(Br)cc1/C(C)=N/NC1=NCCN1,28.6 µM (inactive)
9,COc1ccc(N/N=C/c2c(C(=O)O)ccc3ccccc23)cc1,58.4 µM (inactive)
10,COc1ccc(C2=Nn3c(nnc3-c3ccccc3OC)SC2)cc1OC1CCCC1,3.54 µM
11,O=C(NCCOc1ccccc1)c1cc([N+](=O)[O-])ccc1N1CCOCC1,> 80 µM (inactive)
12,O=C(c1ccccc1-c1ccccc1)N1CCN(c2ccccn2)CC1,> 80 µM (inactive)
13,COc1ccc(OC)c(-c2nnc3n2N=C(c2ccc(OC)c(OC4CCCC4)c2)CS3)c1,35.3 µM (inactive)
14,Cc1cc(C(=O)N2CC=C(c3ccccc3)CC2)c2ccccc2n1,> 80 µM (inactive)
15,O=S(=O)(c1cc(F)ccc1F)N1CCN(c2ncnc3ccccc23)CC1,74.1 µM (inactive)
16,Cc1ccc2cccc(NS(=O)(=O)c3ccccc3)c2n1,0.94 µM
17,COc1cc(C2C(C#N)=C(N)Oc3cc(N(C)C)ccc32)cc2c1OCO2 (configuration not stated),> 80 µM (inactive)
18,Cc1cc2c(cc1C)C(c1ccccc1OC(C)C)CC(=O)N2 (configuration not stated),> 80 µM (inactive)
19,CC(C)Nc1ccc(C(CC(N)=O)NC(=O)Cc2ccc(Br)cc2)cc1[N+](=O)[O-] (configuration not stated),37.8 µM (inactive)
20,COc1ccccc1N=C(C)C1=C(O)CC(c2ccccc2)CC1=O (configuration not stated),> 80 µM (inactive)
21,COc1ccc(C(=O)c2ccc(N(C)C)cc2)c(OC)c1,> 80 µM (inactive)
22,CC(C)(C)c1ccc(C(=O)O/N=C(\N)c2ccccc2)cc1,0.17 µM
23,COc1ccc(-n2nnnc2-c2cccc(OC)c2)cc1,> 80 µM (inactive)
24,CN(C)c1ccc(-c2nn3c(-c4ccccc4Cl)nnc3s2)cc1,> 80 µM (inactive)
25,COC(=O)c1[nH]c2ccc(F)cc2c1NS(=O)(=O)c1ccc(OC)cc1,> 80 µM (inactive)

row,Structure (SMILES),IC50
1,CC1(C)Cc2c(sc(NC(=O)COc3cccc4ccccc34)c2C#N)C(C)(C)N1,8.2 µM
2,COc1cccc(CN(C)C(=O)c2ccc(OCC(=O)Nc3cccc(C(F)(F)F)c3)c(OC)c2)c1,65.7 µM (inactive)
3,CCN(c1ccccc1)S(=O)(=O)c1ccc(C(=O)NC2CCN(Cc3ccccc3)CC2)cc1,> 80 µM (inactive)
4,Cc1cc(-n2c(C)cc(C(=O)CSc3ncnc4ccccc34)c2C)no1,67 µM (inactive)
5,COC(=O)Nc1ccc(S(=O)(=O)N2CCCc3ccccc32)cc1,> 80 µM (inactive)
6,CC1=C([N+](=O)[O-])C(c2ccccc2)C2=C(N1)c1ccccc1C2=O (configuration not stated),> 80 µM (inactive)
7,O=C(Nc1ccc(N2CCCCC2)cc1)c1ccccn1,0.41 µM
8,CCCCCCCCCCCCCCCC[n+]1cccc(C(=O)N(CC)CC)c1,3.3 µM
9,COc1ccc(/C=N/NC(=O)c2[nH]c3ccc(Br)cc3c2-c2ccccc2)cc1,> 80 µM (inactive)
10,COc1ccc(C(C(=O)NC2CCCCC2)N(C(=O)CCl)c2ccc(C)cc2)cc1 (configuration not stated),< 0.16 µM
11,CCOC(=O)C(C)Oc1cccc2c(=O)n(CC(=O)NCc3ccc(F)cc3)ccc12 (configuration not stated),> 80 µM (inactive)
12,Cc1noc(C)c1CSc1nc2ccccc2c(=O)n1-c1ccccc1,> 80 µM (inactive)
13,Cc1ccc(O)c(NC(=O)CCC2CCCCC2)c1,> 80 µM (inactive)
14,Cc1ccc(C(=O)c2cc([N+](=O)[O-])ccc2N2CCOCC2)c(C)c1,> 80 µM (inactive)
15,Cc1cccc(N2CCN(C(=O)c3ccc4[nH]c(C)c(C)c4c3)CC2)c1C,> 80 µM (inactive)
16,Cc1cc(C)cc(NS(=O)(=O)c2ccc(-c3cnc(C4CC4)o3)cc2)c1,53.1 µM (inactive)
17,Cc1cc(-c2ccc(S(=O)(=O)N(C)c3ccc(C)c(C)c3)s2)on1,> 80 µM (inactive)
18,CC(=O)O[C@H]1C(=O)[C@@]2(C)C([C@H](OC(=O)c3ccccc3)[C@]3(O)C[C@H](OC(=O)[C@H](O)[C@@H](NC(=O)c4ccccc4)c4ccccc4)C(C)=C1C3(C)C)[C@]1(OC(C)=O)CO[C@@H]1C[C@H]2O (some centres not stated),> 80 µM (inactive)
19,COc1ccccc1C(=O)N(CCC1CCCN1C)c1nc2ccccc2s1 (configuration not stated),> 80 µM (inactive)
20,CCN1C/C(=C/c2ccc(OC)c(O)c2)C(=O)/C(=C/c2ccc(OC)c(O)c2)C1,25.2 µM (inactive)
21,COc1cccc(N2CCN(c3ncnc4c3cnn4-c3ccc(C)cc3C)CC2)c1,1.58 µM
22,Cc1ccc2[nH]c3c(c2c1)CCCC3NC(=O)CCl (configuration not stated),1.67 µM
23,CCN(CC)c1ccc(-c2nn3c(-c4n[nH]c5c4CCC5)nnc3s2)cc1,> 80 µM (inactive)
24,CCN(CC)c1ccc2nc3ccccc3[n+](CC)c2c1,45.8 µM (inactive)
25,CCOc1ccccc1C1CC(=O)Nc2cc3c(cc21)OCO3 (configuration not stated),> 80 µM (inactive)

row,Structure (SMILES),IC50
1,CC1CC(C)CN(S(=O)(=O)c2ccc(NC(=O)c3ccc(=O)[nH]c3)cc2)C1 (configuration not stated),> 80 µM (inactive)
2,C=C(C)C(=O)O[C@H]1C/C(C)=C\C(=O)/C=C(\C)[C@H](O)[C@@H]2OC(=O)C(=C)[C@@H]21,1.06 µM
3,CN(Cc1ccccc1)C1=CC(=[N+]2CCCC2)CC(C)(C)C1,> 80 µM (inactive)
4,CCOC(=O)c1ccccc1NS(=O)(=O)c1ccc(OCC)cc1,> 80 µM (inactive)
5,CCOC(=O)COc1cccc2c(=O)n(CC(=O)NCc3ccc(F)cc3)ccc12,> 80 µM (inactive)
6,Cc1ccc(-c2nc(-c3ccccn3)no2)cc1,3.78 µM
7,Cc1cc(C)c(S(=O)(=O)Nc2ccc3c4c(cccc24)CC3)c(C)c1,> 80 µM (inactive)
8,CCOC(=O)c1c(C)[nH]c(C(=O)N/N=C/c2ccc(Br)cc2)c1C,> 80 µM (inactive)
9,O=C(Nc1nc(-c2ccccn2)cs1)c1ccc(Cl)s1,< 0.16 µM
10,CCCCc1ccc(NC(=O)c2ccc(N(C)S(C)(=O)=O)cc2)cc1,> 80 µM (inactive)
11,O=C1C=CC(O)(c2cc(=O)c3c(O)cc(O)cc3o2)C=C1,1.62 µM
12,CN(Cc1ccccc1)C1=CC(=[N+]2CCCCC2)CC(C)(C)C1,> 80 µM (inactive)
13,Cn1cc(/C=N/n2cnc3scc(-c4ccc(Cl)cc4)c3c2=O)c2ccccc21,> 80 µM (inactive)
14,CCCCCCCCCCn1c2c(c(=N)c3c1CCC3)CCC2,2.68 µM
15,O=C(Nc1ccc([N+](=O)[O-])cc1)Nc1ccon1,> 80 µM (inactive)
16,C/C=C/COC(=O)c1[nH]c2c(c1C)C(=O)CC(c1ccco1)C2 (configuration not stated),> 80 µM (inactive)
17,COc1cc(C2=NOC(C(=O)NCc3ccc(F)cc3)C2)cc(OC)c1OC (configuration not stated),> 80 µM (inactive)
18,CCCN(CCC)C1=CC(=[N+]2CCCC2)CC(C)(C)C1,22.6 µM (inactive)
19,Cc1ccc2c(c1)COc1c3ccc(C(=O)O)cc3nn1-2,13.4 µM
20,COC(=O)C1=C(CN2CCCc3ccccc32)NC(=O)NC1c1ccc(F)cc1 (configuration not stated),3.48 µM
21,COc1ccc(Br)cc1/C(C)=N/NC1=NCCN1,> 80 µM (inactive)
22,Cc1[nH]n(-c2ccccc2)c(=O)c1/C=N/Nc1nncc(-c2ccccc2)n1,> 80 µM (inactive)
